Read-outs that look alike come from different tables or passages of the source.

In series [1] the target is T1, GT1a D168A NS3/4A protease (UniProt P27958, D1194A, species not given).
T1 construct: rows headed: Ki (nM) D168A; Ki D168A; other: D168A variant
It is filed as biochemical, Hepatitis C virus. In outline:
(§1)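 Enzyme (GT1a wild type or D168A mutant, 2 nM) was preincubated with inhibitor dilutions for 1 h at room temperature in pH 7.5 Tris buffer with glycerol, DTT, LDAO and 4% DMSO.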

For series [2], the target named is GT1a D168A NS3/4A protease. The format is biochemical, Hepatitis C virus. To be noted: for Ki (Fold Change) D168A: Table 6, with respect to GT1a wild-type. In short, it runs like this: as §1
The target in series [3] is T2, wild-type GT1a NS3/4A protease (UniProt P27958).
T2 construct: Ki WT; other: wild-type HCV NS3/4A protease
The format is biochemical, Hepatitis C virus. In outline:
as §1

In series [4] the test system is wild-type HCV replicon in Huh7 cells. As to the kind of experiment: Cell-based drug susceptibility (replicon) assay, wild-type. The conditions noted are these: Hepatitis C virus, read-out: Replicon EC50 (nM) WT. In short, it runs like this:
(§2)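 Huh7 cells electroporated with replicon RNA and exposed to rising concentrations of protease inhibitor, with replication read as luciferase signal at 96 h. Reporter is a genotype 1b Con1 backbone containing genotype 1a H77 NS3, with mutants introduced by site-directed mutagenesis.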

The subject of series [5] is HCV replicon A156T variant in Huh7 cells. As to the kind of experiment: microbe, parasite or virus in culture. The format is cell-based, Hepatitis C virus. The conditions noted are these: for EC50: Hepatitis C virus. In short, it runs like this: as §2
The test system of series [6] is HCV replicon D168A variant in Huh7 cells. The experiment in a line: microbe, parasite or virus in culture. The format is cell-based, Hepatitis C virus. To be noted: for EC50: Hepatitis C virus. In outline: as §2
Series [7] has as its system HCV replicon R155K variant in Huh7 cells. The experiment in a line: microbe, parasite or virus in culture. The format is cell-based, Hepatitis C virus. To be noted: for EC50: Hepatitis C virus. In outline:
as §2

In series [8] the test system is HCV replicon D168V variant in Huh7 cells. As to the kind of experiment: microbe, parasite or virus in culture. To be noted: for EC50: Hepatitis C virus. The format is cell-based, Hepatitis C virus. In outline:
as §2

Series [9] addresses GT1a R155K NS3/4A protease (UniProt P27958, R1181K, species not given). It is filed as biochemical, Hepatitis C virus. In outline: (§3)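 2 nM NS3/4A protease (GT1a, R155K and D168A constructs) pre-incubated 1 h at room temperature with increasing inhibitor concentrations in 50 mM Tris pH 7.5, 5% glycerol, 10 mM DTT, 0.6 mM LDAO, 4% DMSO. Three independent data sets per inhibitor and construct; ΔG of binding derived from Ki as ΔG=RTlnKi.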

In series [10] the target is GT1a R155K NS3/4A protease. The format is biochemical, Hepatitis C virus. To be noted: fold change in Ki, R155K relative to WT. In short, it runs like this:
as §3

For series [11], the system named is drug resistant HCV variants (R155K, A156T, D168A, D168V). The experiment in a line: Replicon antiviral assays, collective statements on drug resistant variants. The conditions noted are these: range over all variants tested. It is filed as cell-based, Hepatitis C virus. Here is the method:
Mutations (R155K, A516T, D168A and D168V) were constructed by site-directed mutagenesis using a Con1 (genotype 1b) luciferase reporter replicon containing the H77 (genotype 1a) NS3 sequence.
Replicon RNA of each protease variant was introduced into Huh7 cells by electroporation. Replication was then assessed in the presence of increasing concentrations of protease inhibitors by measuring luciferase activity (relative light units) 96 h after electroporation.
Mutations (R155K, D168A and A156T) were constructed by site-directed mutagenesis using a Con1 (genotype 1b) luciferase reporter replicon containing the H77 (genotype 1a) NS3 sequence.^6 Replicon RNA of each protease variant was introduced into Huh7 cells by electroporation. Replication was then assessed in the presence of increasing concentrations of protease inhibitors by measuring luciferase activity (relative light units) 96 h after electroporation.
For orientation: Replicon systems follow genome replication, usually without infectious particles.

The conditions of series [12]: rcm bond; 15-membered ring; Zhan 1b; 1,2-DCE; 6.3 mM; 70.0 °C.
In series [13] the target is T3, GT1a D168A NS3/4A protease (UniProt P27958, C1185S/D1194A, species not given).
T3 construct: Ki (nM) GT1a D168A NS3/4A Protease
The format is biochemical, Hepatitis C virus. To be noted: read-out: Ki (nM) GT1a D168A NS3/4A Protease. In outline:
as §1

Series [14] addresses T4, GT1a D168A NS3/4A protease (UniProt P27958, C1185S/D1194A, species not given).
T4 construct: P4/P4-P5 modified macrocycles
The format is biochemical, Hepatitis C virus. The conditions noted are these: read-out: Ki (nM) D168A; Table 6; P4/P4-P5 modified macrocycles. In outline: as §1

The target in series [15] is T5, wild-type GT1a NS3/4A protease (UniProt P27958, C1185S, species not given).
T5 construct: Ki (nM) GT1a WT NS3/4A Protease
The format is biochemical, Hepatitis C virus. To be noted: read-out: Ki (nM) GT1a WT NS3/4A Protease. In outline:
as §1

Series [16] addresses T6, wild-type GT1a NS3/4A protease (UniProt P27958, C1185S, species not given).
T6 construct: P4/P4-P5 modified macrocycles
It is filed as biochemical, Hepatitis C virus. To be noted: read-out: Ki (nM) GT1a WT; Table 6; P4/P4-P5 modified macrocycles. In outline:
as §1

For a further series, the target named is T7, GT3a NS3/4A protease (Hepatitis C virus genotype 3a, UniProt Q81495).
T7 construct: drug-resistant variant D168A, and GT3a NS3/4A protease; made in house; host or cells: Escherichia coli BL21(DE3)
T7 sequence (Q81495 1033-1214): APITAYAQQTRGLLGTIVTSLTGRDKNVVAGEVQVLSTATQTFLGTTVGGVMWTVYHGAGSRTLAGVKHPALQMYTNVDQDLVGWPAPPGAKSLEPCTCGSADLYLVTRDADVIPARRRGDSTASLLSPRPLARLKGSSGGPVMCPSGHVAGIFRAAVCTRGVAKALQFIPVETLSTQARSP
The experiment in a line: biochemical. In outline: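 Protease at 2 nM pre-incubated 1 h at room temperature with increasing inhibitor concentrations in 50 mM Tris, 5% glycerol, 10 mM DTT, 0.6 mM LDAO, 4% DMSO. Three independent data sets per inhibitor and construct.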

Setting [17] is: Table 4, relative to WT replicon.

As to `C=C[C@@H]1C[C@]1(NC(=O)[C@@H]1C[C@@H](Oc2nc3cc(OC)ccc3nc2C)CN1C(=O)[C@@H](NC(=O)OC1CCCC1)C(C)(C)C)C(=O)NS(=O)(=O)C1(C)CC1` [Compound 12b, Cyclopentyl ((S)-1-((2S,4R)-4-((7-methoxy-3-methylquinoxalin-2-yl)oxy)-2-(((1R,2S)-1-(((1-methylcyclopropyl)sulfonyl)carbamoyl)-2-vinylcyclopropyl)carbamoyl)pyrrolidin-1-yl)-3,3-dimethyl-1-oxobutan-2-yl)carbamate], the Ki worked out at 140 ± 13 nM in series [1] (read-out: Ki (nM) D168A, Table 8, linear inhibitors); 140 ± 13 nM in series [1] (read-out: Ki D168A, D168A variant); 7.1 ± 1.1 nM in series [3] (read-out: Ki (nM) WT, Table 8, linear inhibitors); 7.1 ± 1.1 nM in [3] (read-out: Ki WT, wild-type HCV NS3/4A protease); 10 ± 1.3 nM in series [9] (read-out: Ki (nM) R155K, Table 8, linear inhibitors); 10 ± 1.3 nM in series [9] (read-out: Ki R155K, R155K variant). The “Ki D168A (fold change)” value in series [2] (fold change in Ki, D168A relative to WT) is recorded as 20. Also, the EC50 – broadly, the concentration at which the effect is half-maximal – in series [4] (Huh-7, Table 9) worked out at 4.5 nM; in [5] (Huh-7, read-out: Replicon EC50 (nM) A156T, Table 9) it was 87 nM; in [6] (Huh-7, read-out: Replicon EC50 (nM) D168A, Table 9) it was 45 nM; in series [7] (Huh-7, read-out: Replicon EC50 (nM) R155K, Table 9), 28 nM; in series [8] (Huh-7, read-out: Replicon EC50 (nM) D168V, Table 9), 59 nM. In addition, the “Replicon EC50 (Fold change) A156T” value in series [5] (Table 9, relative to WT) is “(19) fold”. Further, in series [6] (Table 9, relative to WT), the “Replicon EC50 (Fold change) D168A” value is “(10) fold”. Also, the “Replicon EC50 (Fold change) R155K” value in series [7] (Table 9, relative to WT) is given as “(6.2) fold”. Besides, the “Replicon EC50 (Fold change) D168V” value in series [8] (Table 9, relative to WT) is listed as “(13) fold”. The “Ki R155K (fold change)” value in series [10] stood at 1.4. The “fold loss in replicon potency against drug resistant variants compared to WT” value in [11] was 5-20 fold.
`COc1ccc2nc(C)c(O[C@@H]3C[C@H]4C(=O)N[C@]5(C(=O)NS(=O)(=O)C6(C)CC6)C[C@H]5/C=C\CCCCC[C@H](NC(=O)OC(C)(C)C)C(=O)N4C3)nc2c1` [Compound 19b, tert-Butyl ((2R,6S,13aS,14aR,16aS,Z)-2-((7-methoxy-3-methylquinoxalin-2-yl)oxy)-14a-(((1-methylcyclopropyl)sulfonyl)carbamoyl)-5,16-dioxo-1,2,3,5,6,7,8,9,10,11,13a,14,14a,15,16,16a-hexadecahydrocyclopropa[e]pyrrolo[1,2-a][1,4]diazacyclopentadecin-6-yl)carbamate] came in with a ring closure, isolated yield in [12] of 70%. The Ki in series [13] (Table 1) was found to be 52 nM; in series [13] (Table 3), 52 ± 2.4 nM; in series [14], 52 nM; in series [15] (Table 1), 3.6 nM; in [15] (Table 3), 3.6 nM; in series [16], 3.6 nM. The Ki on GT3a NS3/4A protease came to 119 nM; on GT3a NS3/4A protease (read-out: Ki (nM) GT3a NS3/4A Protease, Table 3) it was 119 ± 18 nM. Further, in series [2] (Table 3, Ki D168A relative to GT1a WT), the “Ki (Fold change) GT1a D168A NS3/4A Protease” value was “(14) fold”. The “Ki (Fold Change) D168A” value in series [2] is recorded as “(14) fold”. The “Ki (Fold change) GT3a NS3/4A Protease” value on GT3a NS3/4A protease (Table 3, Ki GT3a relative to GT1a WT) is “(33) fold”. Also, the half-maximal effective concentration (EC50) is 0.3 nM in [4] (Huh-7, 96 h, Table 2, Huh7 cells, luciferase 96 h); 0.3 nM in series [4] (Huh-7, Table 4); 1.57 nM in [5] (Huh-7, 96 h, read-out: Replicon EC50 (nM) A156T, Table 2, Huh7 cells, luciferase 96 h); 1.57 nM in series [5] (Huh-7, read-out: Replicon EC50 (nM) A156T, Table 4); 2.37 nM in series [6] (Huh-7, 96 h, read-out: Replicon EC50 (nM) D168A, Table 2, Huh7 cells, luciferase 96 h); 2.37 nM in series [6] (Huh-7, read-out: Replicon EC50 (nM) D168A, Table 4). Besides, the concentration for a half-maximal effect (EC50) was found to be 0.8 nM in [7] (Huh-7, 96 h, read-out: Replicon EC50 (nM) R155K, Table 2, Huh7 cells, luciferase 96 h); 0.8 nM in series [7] (Huh-7, read-out: Replicon EC50 (nM) R155K, Table 4); 1.6 nM in series [8] (Huh-7, 96 h, read-out: Replicon EC50 (nM) D168V, Table 2, Huh7 cells, luciferase 96 h); 1.6 nM in series [8] (Huh-7, read-out: Replicon EC50 (nM) D168V, Table 4). Besides, in series [5] (setting [17]), the “Replicon EC50 (Fold change) A156T” value is given as “(5) fold”. For the same compound, the “Replicon EC50 (Fold change) D168A” value in [6] (setting [17]) is recorded as “(8) fold”. The “Replicon EC50 (Fold change) R155K” value in series [7] (setting [17]) is listed as “(3) fold”. Also, the “Replicon EC50 (Fold change) D168V” value in [8] (setting [17]) is given as “(5) fold”.
As to `CC[C@H](C)[C@H](NC(C)=O)C(=O)N[C@H]1CCCCC/C=C\[C@@H]2C[C@@]2(C(=O)NS(=O)(=O)C2(C)CC2)NC(=O)[C@@H]2C[C@@H](Oc3nc4cc(OC)ccc4nc3C)CN2C1=O` [Compound P4-P5-6, (2R,6S,13aS,14aR,16aS,Z)-6-((2S,3S)-2-acetamido-3-methylpentanamido)-2-((7-methoxy-3-methylquinoxalin-2-yl)oxy)-N-((1-methylcyclopropyl)sulfonyl)-5,16-dioxo-1,2,3,6,7,8,9,10,11,13a,14,15,16,16a-tetradecahydrocyclopropa[e]pyrrolo[1,2-a][1,4]diazacyclopentadecine-14a(5H)-carboxamide], the Ki in series [14] is 81 ± 11 nM; in [16], 7.1 ± 0.24 nM. Further, the “Ki (Fold Change) D168A” value in series [2] is “(11) fold”.

The values are drawn from patent US11472778B2, “Hepatitis C virus NS3/4A protease inhibitors” (priority 2017, dated 2022).
